Measured values published in article PMC6934184, “Selective DNA-PKcs inhibition extends the therapeutic index of localized radiotherapy and chemotherapy” (The Journal of Clinical Investigation, 2019).

Target: T1, SPHK1 (Homo sapiens, UniProt Q9NYA1)
T1 construct: purchased Thermo Fisher Scientific (Life Technologies) SelectScreen
Assay: SelectScreen Adapta
Assay type: biochemical
Method in brief: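 NU5455 was profiled across the SelectScreen Broad panel of kinase activity and binding assays. Z'LYTE reactions such as CSF1R ran at apparent Km ATP, while the Adapta CAMK1 assay used ATP listed as 10. Values are given as percent.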

T1 sequence (Q9NYA1 whole entry): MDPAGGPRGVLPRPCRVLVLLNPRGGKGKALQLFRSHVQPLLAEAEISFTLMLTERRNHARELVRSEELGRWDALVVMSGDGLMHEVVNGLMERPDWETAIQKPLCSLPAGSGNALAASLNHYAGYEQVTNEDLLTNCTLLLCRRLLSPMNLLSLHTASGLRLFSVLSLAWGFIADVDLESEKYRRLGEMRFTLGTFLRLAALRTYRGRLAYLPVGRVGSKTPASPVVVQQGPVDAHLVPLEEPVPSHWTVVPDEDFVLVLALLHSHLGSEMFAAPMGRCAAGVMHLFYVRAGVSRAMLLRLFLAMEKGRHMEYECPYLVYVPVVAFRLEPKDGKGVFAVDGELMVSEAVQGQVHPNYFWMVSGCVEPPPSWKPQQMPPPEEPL

`CN(C(=O)CN1CCOCC1)c1ccc2sc3c(-c4cccc5c(=O)cc(N6CC7CCC(C6)O7)oc45)cccc3c2c1` [NU5455] was tested. Which inhibition at 1 µM did it give?
Its inhibition at 1 µM is 2.7%.
